Data set [1] relates to Mus musculus. In words: Neurotoxicity in albino mouse minimal clonic seizure model assessed as minimal motor impairment at 100 mg/kg, ip after 0.5 hrs by rotorod test. It counts as toxicity, organism-based. Also on record: dose 100 mg/kg, route intraperitoneal. The note with it: in vivo.
The test system of data set [2] is Mus musculus. In words: Neurotoxicity in albino mouse assessed as minimal motor impairment at 100 mg/kg, ip after 0.5 hrs by rotorod test. It counts as toxicity, organism-based. Further details: dose 100 mg/kg, route intraperitoneal. The following applies: in vivo.
For data set [3], the system named is Mus musculus. Briefly: Neurotoxicity in albino mouse assessed as minimal motor impairment at 100 mg/kg, ip after 4 hrs by rotorod test. It counts as toxicity, organism-based. Further details: dose 100 mg/kg, route intraperitoneal. The note with it: in vivo.
Data set [4] has as its system Mus musculus. Briefly: Neurotoxicity in albino mouse minimal clonic seizure model assessed as minimal motor impairment at 100 mg/kg, ip after 2 hrs by rotorod test. The following applies: in vivo. Further details: dose 100 mg/kg, route intraperitoneal. It counts as toxicity, organism-based.
Data set [5] concerns Mus musculus. Briefly: Neurotoxicity in albino mouse minimal clonic seizure model assessed as minimal motor impairment at 100 mg/kg, ip after 4 hrs by rotorod test. It counts as toxicity, organism-based. Also on record: dose 100 mg/kg, route intraperitoneal. The following applies: in vivo.
Data set [6] deals with Mus musculus. In words: Anticonvulsant activity in albino mouse assessed as protection against subcutaneous metrazole-induced seizures at 100 mg/kg, ip after 0.5 hrs. Further details: dose 100 mg/kg. It counts as functional, organism-based.
The subject of data set [7] is Mus musculus. In words: Anticonvulsant activity in albino mouse assessed as protection against maximal electroshock-induced seizures at 100 mg/kg, ip after 0.5 hrs. Further details: dose 100 mg/kg. It counts as functional, organism-based.
For data set [8], the system named is Mus musculus. Briefly: Toxicity in subcutaneous metrazole treated albino mouse assessed as myoclonic jerks at 100 mg/kg, ip after 0.25 hrs. It counts as organism-based. Also on record: dose 100 mg/kg. The following applies: in vivo, sc.
For data set [9], the system named is Mus musculus. In words: Neurotoxicity in albino mouse minimal clonic seizure model assessed as minimal motor impairment at 100 mg/kg, ip after 0.25 hrs by rotorod test. The note with it: in vivo. It counts as toxicity, organism-based. Also on record: dose 100 mg/kg, route intraperitoneal.
Data set [10] concerns Mus musculus. In words: Anticonvulsant activity in albino mouse assessed as protection against 6 Hz psychomotor seizure at 100 mg/kg, ip after 0.25 hrs by minimal clonic seizure test. It counts as functional, organism-based. Also on record: dose 100 mg/kg.
Data set [11] relates to Mus musculus. In words: Anticonvulsant activity in albino mouse assessed as protection against 6 Hz psychomotor seizure at 100 mg/kg, ip after 2 hrs by minimal clonic seizure test. It counts as functional, organism-based. Further details: dose 100 mg/kg.
Data set [12] relates to Mus musculus. Briefly: Anticonvulsant activity in albino mouse assessed as protection against subcutaneous metrazole-induced seizures at 100 mg/kg, ip after 1 hr. It counts as functional, organism-based. Also on record: dose 100 mg/kg.
Another data set relates to Rattus norvegicus. Briefly: Anticonvulsant activity in po dosed albino Sprague-Dawley rat assessed as protection against maximal electroshock-induced seizures after […] to 4 hrs. It counts as functional, organism-based.
Data set [13] deals with Mus musculus. In words: Anticonvulsant activity in albino mouse assessed as protection against 6 Hz psychomotor seizure at 100 mg/kg, ip after 0.5 hrs by minimal clonic seizure test. It counts as functional, organism-based. Also on record: dose 100 mg/kg.
Data set [14] concerns Mus musculus. Briefly: Anticonvulsant activity in albino mouse assessed as protection against maximal electroshock-induced seizures at 100 mg/kg, ip after 4 hrs. It counts as functional, organism-based. Further details: dose 100 mg/kg.
Data set [15] relates to Mus musculus. In words: Anticonvulsant activity in albino mouse assessed as protection against subcutaneous metrazole-induced seizures at 100 mg/kg, ip after 4 hrs. Further details: dose 100 mg/kg. It counts as functional, organism-based.
Data set [16] deals with Mus musculus. Briefly: Anticonvulsant activity in albino mouse assessed as protection against 6 Hz psychomotor seizure at 100 mg/kg, ip after 4 hrs by minimal clonic seizure test. Further details: dose 100 mg/kg. It counts as functional, organism-based.
Data set [17] has as its system Mus musculus. In words: Neurotoxicity in albino mouse assessed as loss of righting reflex at 100 mg/kg, ip after 0.25 hrs by rotorod test. The note with it: in vivo. Also on record: dose 100 mg/kg, route intraperitoneal. It counts as toxicity, organism-based.
Data set [18] has as its system Mus musculus. In words: Neurotoxicity in albino mouse minimal clonic seizure model assessed as minimal motor impairment at 100 mg/kg, ip after 1 hr by rotorod test. It counts as toxicity, organism-based. Also on record: dose 100 mg/kg, route intraperitoneal. The following applies: in vivo.
For data set [19], the system named is Mus musculus. Briefly: Anticonvulsant activity in albino mouse assessed as protection against 6 Hz psychomotor seizure at 100 mg/kg, ip after 1 hr by minimal clonic seizure test. It counts as functional, organism-based. Further details: dose 100 mg/kg.
In data set [20] the test system is Mus musculus. Briefly: Anticonvulsant activity in albino mouse assessed as protection against maximal electroshock-induced seizures at 100 mg/kg, ip after 1 hr. It counts as functional, organism-based. Also on record: dose 100 mg/kg.
Data set [21] relates to Mus musculus. In words: Neurotoxicity in albino mouse assessed as minimal motor impairment at 100 mg/kg, ip after 1 hr by rotorod test. It counts as toxicity, organism-based. Further details: dose 100 mg/kg, route intraperitoneal. The following applies: in vivo.
Data set [22] has as its system Mus musculus. In words: Anticonvulsant activity in albino mouse assessed as protection against maximal electroshock-induced seizures at 100 mg/kg, ip after 0.25 hrs. It counts as functional, organism-based. Also on record: dose 100 mg/kg.

Active and inactive are the calls of the source. The calls are words filed in the database; no cut-off is given here.

Take `Cc1ccccc1[C@H]1C(=O)NC(=O)[C@@H]2CCCN12`: the Activity result in the data set with Mus musculus [1] was “Non-toxic”; in the data set with Mus musculus [2], “Non-toxic”; in the data set on Mus musculus [3], “Non-toxic”; in the data set with Mus musculus [4] it was “Non-toxic”; in the data set with Mus musculus [5] it was “Non-toxic”; with Mus musculus [8], “Toxic”. For the same compound, the Activity entry with Mus musculus [9] is given as “Non-toxic”; in the data set on Mus musculus [17], “Toxic”; in the data set with Mus musculus [18] it was “Non-toxic”; with Mus musculus [21], “Non-toxic”. Also, the outcome in the data set with Mus musculus [6], with Mus musculus [7], with Mus musculus [11], with Mus musculus [12], in the data set with Rattus norvegicus and with Mus musculus [14] was inactive. The result with Mus musculus [15], with Mus musculus [16], in the data set on Mus musculus [20] and in the data set with Mus musculus [22] was inactive. Further, the outcome in the data set on Mus musculus [10], with Mus musculus [13] and with Mus musculus [19] was Active.
